Source: patent US10544075B2 (OREGON HEALTH & SCIENCE UNIVERSITY, priority 2016, dated 2020)

Assays:
[1] = Single time-point drug distribution of parent drugs from amides in brain and serum; format: in vivo, C57Bl/6 mice; conditions: equimolar systemic dose of 3.05 μmol/kg, 1 hour, brain
Description: Wild type male C57Bl/6 mice, aged 8-10 weeks, were housed in a climate-controlled room with a 12 hour light-dark cycle with ad libitum access to food and water. To compare the single time-point drug distribution of JD-20 with JD-20 generated from the amide MA-JD20, and JD-21 with JD-21 generated from the amide MA-JD-21, the concentrations of the parent drugs were analyzed in brain and serum of mice by administering a dose of 3.05 μmol/kg (three mice per dose) with JD-20, JD-21, MA-JD20 and MA-JD21 both intraperitoneally and orally. The compounds were dissolved in a mixture of 50:50 DMSO and 0.9% sodium chloride bacteriostatic solution. Oral gavage was performed with the use of plastic feeding tubes (20 ga×38 mm, Instech Laboratories Inc., PA, USA) connected to […] insulin syringes (Covidien LLC MA, USA). In both experiments, the mice were euthanized after 1 hour following drug administration.
The tissues were processed as follows: The brains were collected in previously weighed homogenizer tubes with 3 Gold Spec ⅛ chrome steel balls (Applied Industrial Technologies) and immediately frozen at −80° C. The blood samples were kept on ice for 30 mins and then spun down at 5400×G at 4° C. for 15 min. […]
The serum samples were warmed to room temperature. […] The serum samples thus prepared were submitted for LC-MS/MS analysis to quantify the amount of free JD-20 or JD-21. […]

[2] = 24 h time-course study after oral dose of MA-JD20; format: in vivo, mice; conditions: oral MA-JD20, JD-20 measured
Description: As a follow-up of the single time point study, a 24 h time course study through oral gavage was performed for the amides, MA-JD20 and MA-JD21, and the corresponding JD-20 or JD-21 concentrations were measured in brain and blood of mice. Pharmacokinetic time-course curves were generated from these analyses and area under the curve (AUC) values for brain and blood were obtained.
Following the single time point drug distribution evaluation, to further understand the pharmacokinetic properties of the amide, a 24 h time-course study was conducted by administering an oral dose of […] of MA-JD20 to mice. The JD-20 concentrations generated in brain and blood were analyzed and area under the curve (AUC) values for brain and serum were obtained (FIG. 7). The AUCbrain/AUCserum ratio for amide MA-JD-20 is observed to be 0.89. […] The results obtained from the single point drug distribution were confirmed by the AUC analyses.

Human FAAH = Human FAAH (Homo sapiens (Human), UniProt O00519); assay: FAAH activity in cell homogenate; format: biochemical
Description: COS-7 cells (ATCC CRL-1651) were cultured in Dulbecco's Modified Eagle's Medium supplemented with 10% FBS, penicillin ([…]), and streptomycin ([…]). Cells (800,000/well) were seeded into 6-well plates (Falcon 353046) and left to adhere overnight. Cells were transfected with pcDNA4-FAAH-FLAG with Lipofectamine 2000 (Invitrogen) according to the manufacturer's protocol. Mock transfection controls were done with transfection reagent and no DNA. Cells were washed 4-days post transfection with cold PBS and scraped into TE buffer (125 mM Tris, 1 mM EDTA, pH 9) and sonicated (10 sec, 60 Sonic Dismembrator, Fisher). Cell homogenates were stored at −80° C. and protein concentrations were determined by BCA (Pierce). Cell homogenates were diluted into TE buffer containing 0.1% fatty-acid free BSA (Alfa Aesar). Substrates were added as 50× stocks in DMSO into 50 μL aliquots of homogenate to a final concentration of 100 μM. Reactions were performed with homogenate protein at 31.25 μg/mL for 15 min at 37° C. Reactions were quenched with 100 μL acetonitrile and vortexed for 20 s. Samples were clarified by centrifuge (10,000 rpm, 15 min, 4° C.). The supernatant is diluted 50-fold into 2:1 MeCN:H2O containing 300 nM d11-arachindonic acid and 30 nM d6-sobetirome. Samples were centrifuged again (13,200 rpm, 15 min, 4° C.). Products were quantified by LC/MS-MS with standard curves generated from mock samples. Observed rates are expressed as nmol product per mg protein homogenate per min.
FAAH was overexpressed in COS-7 cells as described above and cell homogenate was used to measure observed rates of substrate cleavage compared with the classic endogenous FAAH substrate anandamide (AEA). Substrate were all tested at 100 μM. Compared to AEA, the thyromimetic amides MA-GC 1 (9-fold), MA-JD20 (31-fold), and MA-JD21 (20-fold) show decreased rates. […] Observed rates are expressed as nmol product per mg homogenate protein per min.

Chain of Human FAAH (O00519 whole entry): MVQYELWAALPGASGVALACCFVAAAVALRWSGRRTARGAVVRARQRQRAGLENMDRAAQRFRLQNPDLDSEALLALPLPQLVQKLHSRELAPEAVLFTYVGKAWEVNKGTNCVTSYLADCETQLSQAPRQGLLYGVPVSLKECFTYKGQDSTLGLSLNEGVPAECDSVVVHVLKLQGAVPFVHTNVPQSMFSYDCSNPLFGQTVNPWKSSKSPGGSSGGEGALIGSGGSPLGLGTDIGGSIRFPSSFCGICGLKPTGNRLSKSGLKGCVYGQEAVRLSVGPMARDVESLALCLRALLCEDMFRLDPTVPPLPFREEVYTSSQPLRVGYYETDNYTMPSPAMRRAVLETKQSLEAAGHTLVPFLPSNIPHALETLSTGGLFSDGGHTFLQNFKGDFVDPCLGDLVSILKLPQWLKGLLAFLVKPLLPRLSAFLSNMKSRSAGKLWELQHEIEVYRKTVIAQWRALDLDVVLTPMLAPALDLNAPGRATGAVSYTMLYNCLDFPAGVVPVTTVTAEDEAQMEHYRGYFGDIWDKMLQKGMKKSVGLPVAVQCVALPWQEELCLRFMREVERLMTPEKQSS

CNC(=O)COc1cc(Br)c(Cc2ccc(O)c(C(C)C)c2)c(Br)c1 [MA-JD20, 2-(3,5-dibromo-4-(4-hydroxy-3-isopropylbenzyl)phenoxy)-N-methylacetamide]
parent drug delivered to the CNS compared to unmodified JD-20 or JD-21 [1]: delivers more of the parent drugs to the CNS | Cmax and Tmax time in the brain tissue [2]: around 2 h | FAAH substrate (Human FAAH; 100 μM, COS-7 cell homogenate): substrates for fatty-acid amide hydrolase (FAAH) | decreased observed rate of substrate cleavage compared to AEA (Human FAAH; substrate 100 μM, FAAH overexpressed in COS-7 cell homogenate): 31 fold
